Data set [1] can be described thus: Vitamin E acetate in rabbit tear samples after single 50 μL instillation. The data set is classed as in vivo. How it is done: Subsequently, tear samples were collected using filter paper strips, and the vitamin E acetate contained in the paper strips extracted using methanol. The amount of vitamin E acetate in the methanol extracts was analyzed using LC/MS/MS by known methods.

Data set [2] in a line: Vitamin E acetate in rabbit aqueous humor samples. The class given is in vivo. To be noted: days 1, 4, 7, 12; quantification limit 1.0 ng/mL.

Turning to `CC(=O)Oc1c(C)c(C)c2c(c1C)CC[C@@](C)(CCC[C@H](C)CCC[C@H](C)CCCC(C)C)O2` [Vitamin E acetate, [(2R)-2,5,7,8-tetramethyl-2-[(4R,8R)-4,8,12-trimethyltridecyl]chroman-6-yl] acetate], in data set [1], the “Time vitamin E acetate present in tears of rabbit eyes” value is on record as “at least 12 days”. In addition, the concentration at 1 day in data set [1] (rabbit, tears, topical, Day 1) worked out at 5250 ng/mL. The same compound gave a concentration at 4 day in data set [1] (rabbit, tears, topical, Day 4) of 114 ng/mL. For the same compound, in data set [1] (rabbit, tears, topical, Day 7), the concentration at 7 day amounted to 98.6 ng/mL. The compound also registered a concentration at 12 day in data set [1] (rabbit, tears, topical, Day 12) of 27.4 ng/mL. In addition, the “Vitamin E acetate in aqueous humor samples” value in data set [2] is on record as “No detectable”.

The values are drawn from patent publication US11497710B2, “Eye drop formulation and method for sustained delivery of medicament to the retina” (Chibi, Inc., priority 2018, dated 2022).
